According to patent US20050267067A1, “Radical reaction inhibitors, method for inhibition of radical reactions, and use thereof” (priority 2002, published 2005):

Assays:
[1] = Radical oxidation of linoleic acid by AAPH (conjugated diene, TBARS); settings: for Formed TBARS / Formed conjugated diene: 37° C., AAPH; for Conjugated diene formation: (%) / TBARS formation: (%): versus system with no cyclotetrasaccharide
Excerpt: As a negative control, a system of PBS with no cyclotetrasaccharide was provided and measured similarly as above. Conjugated diene was quantified by measuring the absorbance of test samples at a wavelength of 234 nm according to the method by Okamura et al., in Journal of Agricultural and Food Chemistry, Vol. 42, page 1,612 (1994). TABRS was quantified by allowing the sampled test specimens to react with thiobarbituric acid and measured for absorbance of the reaction mixture at a wavelength of 532 nm according to the method by Ohgawara et al., in Journal of Lipid Research, Vol. 19, page 1,053 (1978). The quantification of the formed TBARS in test samples was determined with a calibration curve provided in such a manner of diluting 1,1,3,3-tetraethoxypropane with ethanol into 10, 50 and 100 μg/ml dilutes, allowing the dilutes with thiobarbituric acid similarly as the test samples, measuring the absorbance of the resulting mixtures similarly as above, and drawing calibration curve based on the measured absorbances and the amount of TBARS calculated theoretically. The quantification of the formed conjugated diene in the test samples was determined by calculating the absorbances of the samples obtained in this experiment, based on the molar absorbance coefficient of molecules disclosed in Journal of Agricultural and Food Chemistry, Vol. 42, page 1,612 (1994). Tables 4 and 5 show the results on measurement for the formation level of conjugated diene and TBARS, respectively.

[2] = test system: low density lipoprotein (LDL); experiment: Oxidation of low density lipoprotein (LDL) by AAPH, absorbance at 234 nm; assay type: biochemical; settings: for Absorbance at a wavelength of 234 nm Average: 120 min after initiating the reaction
Procedure: An experiment for examining the influence of cyclotetrasaccharide on the oxidation inhibition for low density lipoprotein (LDL) was conducted as follows: Two and half milliliters of 0.5 mg/ml of a low density lipoprotein (LDL) in phosphate buffered saline (PBS, pH 7.4) was mixed with 2.5 ml of 100 mM PBS solution containing any one of the crystalline cyclotetrasaccharide pentahydrate, crystalline cyclotetrasaccharide monohydrate, and anhydrous crystalline cyclotetrasaccharide, which had been prepared in Experiment 1-1, in PBS or 2.5 ml of PBS free of cyclotetrasaccharide. The resulting mixture was admixed with 50 μl of 100 mM 2,2′-azo-bis(2-amidinopropane)dihydrochloride (AAPH) in PBS (pH 7.4) and reacted at 37° C. The reaction was continued for 240 min to examine changes on time course. […] In Table 2, the results for crystalline cyclotetrasaccharide pentahydrate are only shown because crystalline cyclotetrasaccharide pentahydrate, crystalline cyclotetrasaccharide monohydrate, and anhydrous crystalline cyclotetrasaccharide gave similar results. Also, the influence of cyclotetrasaccharide on the oxidation of a low density lipoprotein (LDL) by AAPH was examined by mixing a 2.5 ml solution containing 0.5 mg/ml of a low density lipoprotein (LDL) in PBS with 2.5 ml of a PBS solution in which the crystalline cyclotetrasaccharide pentahydrate, prepared in Experiment 1-1, had been dissolved to give a concentration of 2 mM, 10 mM or 20 mM, or 2.5 ml of PBS with no cyclotetrasaccharide; and measuring for absorbance at a wavelength of 234 nm for each of the resulting mixtures similarly as above.

[3] = reaction time 6 hr, listed as cyclotetrasaccharide

OCC1OC2OCC3O[C@H](O[C@H]4C(O)C(CO)OC(OCC5O[C@H](O[C@@H](C1O)C2O)C(O)C(O)[C@@H]5O)C4O)C(O)C(O)[C@@H]3O (stereo partly drawn) [Cyclotetrasaccharide, cyclo{→6}-α-D-glucopyranosyl-(1→3)-α-D-glucopyranosyl-(1→6)-α-D-glucopyranosyl-(1→3)-α-D-glucopyranosyl-(1→}]
Formed TBARS ([1]; reaction time 0 hr): 0.00 μg/g-linoleic acid | Formed conjugated diene ([1]; reaction time 0 hr): 0.27 μg/g-linoleic acid | Conjugated diene formation: (%) ([1]; reaction time 0 hr): (100) % | Formed TBARS ([1]; reaction time 1 hr): 1.52 μg/g-linoleic acid | Formed conjugated diene ([1]; reaction time 1 hr): 5.16 μg/g-linoleic acid | Conjugated diene formation: (%) ([1]; reaction time 1 hr): (55) % | TBARS formation: (%) ([1]; reaction time 1 hr): (55) % | Formed TBARS ([1]; reaction time 2 hr): 3.55 μg/g-linoleic acid | Formed conjugated diene ([1]; reaction time 2 hr): 9.15 μg/g-linoleic acid | Conjugated diene formation: (%) ([1]; reaction time 2 hr): (51) % | TBARS formation: (%) ([1]; reaction time 2 hr): (35) % | Formed TBARS ([1]; reaction time 6 hr): 7.97 μg/g-linoleic acid | Formed conjugated diene ([1]; reaction time 6 hr): 23.83 μg/g-linoleic acid | Conjugated diene formation: (%) ([1]; reaction time 6 hr): (40) % | TBARS formation: (%) ([1]; reaction time 6 hr, listed as Cyclotetra-saccharide): (30) % | Conjugated diene formation: (%) [1, 3]: about 40% | TBARS formation: (%) [1, 3]: about 30% | Formation percentage (%) of LDL oxide ([2]; 1 mM cyclotetrasaccharide, 120 min): 76% | Absorbance at a wavelength of 234 nm Average ([2]; 1 mM cyclotetrasaccharide): 0.163 | Formation percentage (%) of LDL oxide ([2]; 5 mM cyclotetrasaccharide, 120 min): 35% | Absorbance at a wavelength of 234 nm Average ([2]; 5 mM cyclotetrasaccharide): 0.076 | Absorbance at a wavelength of 234 nm Average ([2]; 10 mM cyclotetrasaccharide): 0.028 | Absorbance at a wavelength of 234 nm ([2]; 50 mM cyclotetrasaccharide, 0 min after adding AAPH): 0.0 | Formation percentage (%) of LDL oxide ([2]; 50 mM cyclotetrasaccharide, 30 min, versus system with no cyclotetrasaccharide): 14% | Absorbance at a wavelength of 234 nm ([2]; 50 mM cyclotetrasaccharide, 30 min after adding AAPH): 0.018 | Formation percentage (%) of LDL oxide ([2]; 50 mM cyclotetrasaccharide, 60 min, versus system with no cyclotetrasaccharide): 20% | Absorbance at a wavelength of 234 nm ([2]; 50 mM cyclotetrasaccharide, 60 min after adding AAPH): 0.042 | Formation percentage (%) of LDL oxide ([2]; 50 mM cyclotetrasaccharide, 120 min, versus system with no cyclotetrasaccharide): 21% | Absorbance at a wavelength of 234 nm ([2]; 50 mM cyclotetrasaccharide, 120 min after adding AAPH): 0.046 | Formation percentage (%) of LDL oxide ([2]; 50 mM cyclotetrasaccharide, 180 min, versus system with no cyclotetrasaccharide): 23% | Absorbance at a wavelength of 234 nm ([2]; 50 mM cyclotetrasaccharide, 180 min after adding AAPH): 0.056 | Absorbance at a wavelength of 234 nm ([2]; 50 mM cyclotetrasaccharide, 240 min after adding AAPH): 0.064
